Calls of active or inactive are those of the source. The calls are words filed in the database; no cut-off is given here.
Columns and labels:
Pseudomonas aeruginosa [1] = assay: Induction of morphological changes in Pseudomonas aeruginosa assessed as inhibition of cell division by measuring elongated cells at MIC concentration incubated for 60 mins by SEM analysis; format: functional, organism-based
Staphylococcus aureus [2] = assay: Induction of morphological changes in methicillin-resistant Staphylococcus aureus at MIC concentration incubated for 6 hrs by SEM analysis; format: functional, organism-based
Cell membrane [3] = assay: Induction of outer membrane permeabilization in Klebsiella pneumoniae at 0.5 to 1 times of MIC incubated for 5 to 20 mins by fluorescence based NPN uptake assay; format: subcellular; conditions: time 5-20 min
[4] = […] activity against LPS-induced human PBMC assessed as increase in cell number by measuring rise in cell proliferation percentage at 12.5 uM measured after 12 hrs by lymphocyte proliferation assay (12 hrs incubated Rvb = 478.774%); format: functional
Staphylococcus aureus [5] = assay: Antibiofilm activity against preformed biofilm in methicillin-resistant Staphylococcus aureus assessed as decrease in metabolic activity at MIC incubated overnight by MTT assay; format: functional, organism-based
[6] = Cytotoxicity against human MCF7 cells assessed as cell viability at 12.5 uM incubated for 24 hrs by MTT assay relative to control; format: toxicity, cell-based; conditions: read-out: Activity
Pseudomonas aeruginosa [7] = assay: Induction of morphological changes in Pseudomonas aeruginosa at MIC concentration incubated for 6 hrs by SEM analysis; format: functional, organism-based
Escherichia coli [8] = assay: Induction of morphological changes in Escherichia coli at MIC concentration incubated for 6 hrs by AFM analysis; format: functional, organism-based
Klebsiella pneumoniae [9] = assay: Antibiofilm activity against Klebsiella pneumoniae assessed as biofilm eradication at 1 times of MIC incubated for 24 hrs by CV staining based analysis relative to control; format: functional
[10] = Cytotoxicity against human WI-38 cells assessed as cell viability at 12.5 uM incubated for 24 hrs by MTT assay relative to control; format: toxicity, cell-based; conditions: read-out: Activity
Klebsiella pneumoniae [11] = assay: Antibiofilm activity against preformed biofilm in Klebsiella pneumoniae assessed as decrease in cell viability at MIC incubated overnight by MTT assay relative to control; format: functional
Pseudomonas aeruginosa [12] = assay: Induction of morphological changes in Pseudomonas aeruginosa assessed as cellular destruction at MIC concentration incubated for 6 hrs by SEM analysis; format: functional, organism-based
Pseudomonas aeruginosa [13] = assay: Antibacterial activity against patient-derived Pseudomonas aeruginosa assessed as inhibition of bacterial growth at 25 to 100 uM incubated overnight by spotting assay; format: functional, organism-based; conditions: dose 25-100 µM
Staphylococcus aureus [14] = assay: Bactericidal activity against patient-derived Staphylococcus aureus assessed as reduction in bacterial growth incubated for 24 hrs by Mueller Hinton Agar based plate analysis; format: functional
Pseudomonas aeruginosa [15] = assay: Antibiofilm activity against Pseudomonas aeruginosa in the presence of Na+; format: functional, organism-based
Klebsiella pneumoniae [16] = assay: Antibacterial activity against carbapenem resistance Klebsiella pneumoniae ATCC BAA-1705 assessed as inhibition of bacterial growth at 1.25 to 40 uM by microtiter plate reader analysis; format: functional, organism-based; conditions: dose 1.25-40 µM, time 0.5-8.5 hrs, TDE = time-dependent effect
[17] = Cytotoxicity against human WI-38 cells assessed as cell viability at 25 uM incubated for 24 hrs by MTT assay relative to control; format: toxicity, cell-based; conditions: read-out: Activity
Escherichia coli [18] = assay: Antibiofilm activity against Escherichia coli in the presence of Cl-; format: functional, organism-based
Pseudomonas aeruginosa [19] = assay: Bactericidal activity against patient-derived Pseudomonas aeruginosa assessed as reduction in bacterial growth incubated for 24 hrs by Mueller Hinton Agar based plate analysis; format: functional
Pseudomonas aeruginosa [20] = assay: Induction of morphological changes in Pseudomonas aeruginosa assessed as inhibition of cell division by measuring filamented cells at MIC concentration incubated for 60 mins by SEM analysis; format: functional, organism-based
Rattus norvegicus [21] = species: Rattus norvegicus; assay: Induction of wound healing in surgically-induced Albino Wistar rat wound model assessed as reduction in inflammatory signs at 10 uM measured after 11 days by H&E staining based analysis; format: functional; conditions: time 11.0 day
Lipopolysaccharide (LPS) = assay: Induction of Escherichia coli O111:B4 Lipopolysaccharide aggregate degradation at 40 uM incubated for 4 hrs by ESI-LC/MS analysis
Klebsiella pneumoniae [22] = assay: Induction of morphological changes in carbapenem resistant Klebsiella pneumoniae ATCC BAA-1705 at MIC concentration incubated for 60 mins by SEM analysis; format: functional, organism-based
Escherichia coli [23] = assay: Antibacterial activity against Escherichia coli assessed as inhibition of bacterial growth at 1.25 to 40 uM by microtiter plate reader analysis; format: functional, organism-based; conditions: dose 1.25-40 µM, time 0.5-8.5 hrs, TDE = time-dependent effect
Escherichia coli [24] = assay: Antibacterial activity against Escherichia coli ATCC CRM-11229 assessed as inhibition of bacterial growth at 25 to 100 uM incubated overnight by spotting assay; format: functional, organism-based; conditions: dose 25-100 µM
Escherichia coli [25] = assay: Induction of resistance development in Escherichia coli assessed as change in MIC at 0.5 times of MIC incubated with compound for 12 hrs followed by replacement with fresh medium for 12 hrs and measured after 20 repeated cycles; format: functional, organism-based; conditions: time 240.0 hrs
[26] = Stability in human serum assessed as half-life at 1 mM by HPLC analysis; format: ADME, cell-free
Rattus norvegicus [27] = species: Rattus norvegicus; assay: Induction of wound healing in surgically-induced Albino Wistar rat wound model inoculated with methicillin-resistant Staphylococcus aureus assessed as reduction in inflammatory signs at 10 uM measured after 11 days by H&E staining based analysis; format: functional; conditions: time 11.0 day
[28] = Hemolytic activity in human RBC assessed as hemolysis at 3.125 to 12.5 uM incubated for 30 mins under shaking condition by multiplate reader analysis relative to control; format: toxicity, cell-based, Erythrocyte; conditions: human red blood cells (RBC), dose 3.125-12.5 µM, read-out: Activity
Cell membrane [29] = assay: Induction of outer membrane permeabilization in Escherichia coli at 0.5 to 1 times of MIC incubated for 5 to 20 mins by fluorescence based NPN uptake assay; format: subcellular; conditions: time 5-20 min
Staphylococcus aureus [30] = assay: Induction of morphological changes in methicillin-resistant Staphylococcus aureus assessed as abnormal cell shrinkage at MIC concentration incubated for 60 mins by SEM analysis; format: functional, organism-based
Cell membrane [31] = assay: Induction of cytoplasmic membrane depolarization in Escherichia coli assessed as increase in fluorescence intensity at 0.5 to 1 times of MIC by DiSC3-5 dye based fluorescence method; format: subcellular
RAW264.7 = assay: Antiinflammatory activity in LPS-induced mouse RAW264.7 cells assessed as increase in TGF-beta1 expression at 5 to 10 uM incubated for 24 hrs by radioimmunoprecipitation based dot-plot analysis; format: functional, cell-based; conditions: dose 5-10 µM
Klebsiella pneumoniae [32] = assay: Antibiofilm activity against preformed biofilm in Klebsiella pneumoniae assessed as decrease in cell viability at 0.5 times of MIC incubated overnight by MTT assay relative to control; format: functional
Klebsiella pneumoniae [33] = assay: Antibiofilm activity against Klebsiella pneumoniae assessed as clearance of preformed biofilm at 1 times of MIC incubated for 24 hrs by CV staining based analysis relative to control; format: functional
Pseudomonas aeruginosa [34] = assay: Induction of morphological changes in Pseudomonas aeruginosa at MIC concentration incubated for 60 mins by SEM analysis; format: functional, organism-based
Pseudomonas aeruginosa [35] = assay: Antibiofilm activity against Pseudomonas aeruginosa assessed as clearance of preformed biofilm at 1 times of MIC incubated for 24 hrs by CV staining based analysis relative to control; format: functional
[36] = Stability in human serum assessed as intact peptide remaining at 1 mM measured after 24 hrs by HPLC analysis; format: ADME, cell-free; conditions: read-out: Stability
Staphylococcus aureus [37] = assay: Antibiofilm activity against methicillin-resistant Staphylococcus aureus assessed as biofilm eradication at 1 times of MIC incubated for 24 hrs by CV staining based analysis relative to control; format: functional
Rattus norvegicus [38] = species: Rattus norvegicus; assay: Induction of wound healing in surgically-induced Albino Wistar rat wound model assessed as reduction in inflammatory cell infiltration at 10 uM measured after 11 days by H&E staining based analysis; format: functional; conditions: time 11.0 day

H-FLPIIKWVKKFFWRWR-OH
Activity (Pseudomonas aeruginosa [1]): Active
Activity (Staphylococcus aureus [2]): Active
Activity (Cell membrane [3]): Active
Activity [4]: 52.357%
Activity (Staphylococcus aureus [5]): Active
viability at 24 h, 12.5 µM [6]: 77%
Activity (Pseudomonas aeruginosa [7]): Active
Activity (Escherichia coli [8]): Active
Activity (Klebsiella pneumoniae [9]): <=78.28%
viability at 24 h, 12.5 µM [10]: 91.5%
Activity (Klebsiella pneumoniae [11]): 51.78%
Activity (Pseudomonas aeruginosa [12]): Active
Activity (Pseudomonas aeruginosa [13]): Active
MBC (Staphylococcus aureus [14]): 8 µM
Activity (Pseudomonas aeruginosa [15]): Active
Activity (Klebsiella pneumoniae [16]): Tde
viability at 24 h, 25 µM [17]: 88.3%
Activity (Escherichia coli [18]): Active
MBC (Pseudomonas aeruginosa [19]): 6 µM
Activity (Pseudomonas aeruginosa [20]): Active
Activity (Rattus norvegicus [21]): Active
Activity (Lipopolysaccharide (LPS)): Active
Activity (Klebsiella pneumoniae [22]): Active
Activity (Escherichia coli [23]): Tde
Activity (Escherichia coli [24]): Active
Activity (Escherichia coli [25]): inactive
half-life at 1000 µM [26]: ~24 h
Activity (Rattus norvegicus [27]): Active
hemolysis at 0.5 h, up to 12.5 µM [28]: 3.22%
Activity (Cell membrane [29]): Active
Activity (Staphylococcus aureus [30]): Active
Activity (Cell membrane [31]): Active
Activity (RAW264.7): Active
Activity (Klebsiella pneumoniae [32]): 79.96%
Activity (Klebsiella pneumoniae [33]): ~70%
Activity (Pseudomonas aeruginosa [34]): Active
Activity (Pseudomonas aeruginosa [35]): ~56%
remaining at 24 h, 1000 µM [36]: 47.1%
Activity (Staphylococcus aureus [37]): <=87.6%
Activity (Rattus norvegicus [38]): Active

— ChEMBL document CHEMBL5360649, “Potential Broad-Spectrum Antimicrobial, Wound Healing, and Disinfectant Cationic Peptide Crafted from Snake Venom” (J Med Chem, 2023)
